Where two headings read alike, the source gives them in different places.
Columns and labels:
[1] = system: Karpas299; test: Cell proliferation assay (MTS / BrdU), Karpas299; format: cell-based; details: Homo sapiens, KARPAS-299; 72 hours, 2% FBS
Description: (§1) Karpas299 and SU-DHL-1 cells were purchased from Deutsche Sammlung von Mikroorganismen and Zellkulturen (Germany). H2228 was purchased from American Type Culture Collection (USA). All cells were cultured in the recommended medium and serum concentration. Cells were maintained at 37° C. in a humidified atmosphere with 5% CO2. For ALK kinase phosphorylation, cells were seeded in 96-well plates overnight in medium supplemented with 10% fetal bovine serum […]. After 24 hours, the medium was removed and cells were cultured in serum-free medium at 37° C. in the presence of various concentrations of the test articles for 1 hour. After incubation with the tested articles, cells were washed once with HBSS supplemented with 1 mM Na3VO4 and protein lysates were generated. Subsequently, phosphorylation of ALK was assessed by a sandwich ELISA method using an immobilized anti-total-ALK antibody and an anti-phospho-ALK antibody (pY1604) as a detection antibody. IC50 value was calculated using median-effect method. (Chou 2006).
(§2) For cell proliferation assay, cells were seeded in 96-well pates at low density at 37° C. in medium supplemented with 10% FBS and after 24 hours were switched to low serum medium (2% FBS). Cells were further incubated in the presence of the test articles at various concentrations at 37° C. for 72 hours. Two assays were employed to determine the relative cell numbers. One is a 3-(4,5-dimethylthiazol-2-yl)-5-(3-carboxymethoxyphenyl)-2-(4-sulfophenyl)-2H-tetrazolium (MTS) assay using a CellTiter 96® Aqueous Non-Radioactive Cell Proliferation kit (Promega), and the other is a BrdU incorporation assay using a DELFIA® Cell Proliferation Kit (Perkin Elmer). IC50 value was calculated using median-effect method (Chou 2006).

[2] = system: SU-DHL-1; test: Cell proliferation assay (MTS / BrdU), SU-DHL-1; format: cell-based; details: Homo sapiens, 72 hours, 2% FBS
Description: as §1, §2

[3] = system: H2228; test: Cell proliferation assay (MTS / BrdU), H2228; format: cell-based; details: Homo sapiens, NCI-H2228; 72 hours, 2% FBS
Description: as §1, §2

[4] = Pharmacokinetic assay, intravenous and oral administration; format: in vivo, Sprague-Dawley rats or beagle dogs; details: plasma; for half-life: after oral administration in rats or dogs; for bioavailability: oral administration in rats or dogs, read-out: oral bioavailabilty
Description: The tested articles were given to Sprague-Dawley rats or beagle dogs by intravenous and oral administration. Plasma samples were prepared from blood samples which were collected at various time points. The plasma concentrations of the tested articles were determined by specific LC-MS/MS analytical methods. Pharmacokinetic parameters were calculated with WinNonlin®.

[5] = target: T1, ALK (Homo sapiens, UniProt Q9UM73); test: ALK enzyme activity assay (HTRF KinEASE); format: biochemical; parameters: purchased Millipore Company (Billerica, Mass., USA); details: ATP 25 μM, 30° C. 30 minutes
Description: ALK Enzyme Activity Assay:
ALK kinase was purchased from Millipore Company (Billerica, Mass., USA). HTRF®KinEASET™ was purchased from Cisbio Company (Bedford, Mass., USA). The assay was conducted according to the procedure provided in the assay kit. In brief, incubation was carried out in the kinase buffer containing ALK (0.3 ng/μL), ATP (25 μM), TK substrate-biotin (10 μM), DTT (1 mM), MgCl2 (5 mM), MnCl2 (5 mM) in the presence of the tested articles at various concentrations in 384-well plate at 30° C. for 30 minutes. The reaction was stopped by addition of Sa-XL665 in EDTA solution, and the phosphorylated substrate was detected with a proprietary phospho-specific monoclonal antibody labeled with Eu^3+-Cryptate and a proprietary biotinylated kinase substrate detected using XL665 labeled streptavidin. IC50 value was calculated using median-effect method (Chou 2006).
Target sequence in this assay (Q9UM73 19-1620): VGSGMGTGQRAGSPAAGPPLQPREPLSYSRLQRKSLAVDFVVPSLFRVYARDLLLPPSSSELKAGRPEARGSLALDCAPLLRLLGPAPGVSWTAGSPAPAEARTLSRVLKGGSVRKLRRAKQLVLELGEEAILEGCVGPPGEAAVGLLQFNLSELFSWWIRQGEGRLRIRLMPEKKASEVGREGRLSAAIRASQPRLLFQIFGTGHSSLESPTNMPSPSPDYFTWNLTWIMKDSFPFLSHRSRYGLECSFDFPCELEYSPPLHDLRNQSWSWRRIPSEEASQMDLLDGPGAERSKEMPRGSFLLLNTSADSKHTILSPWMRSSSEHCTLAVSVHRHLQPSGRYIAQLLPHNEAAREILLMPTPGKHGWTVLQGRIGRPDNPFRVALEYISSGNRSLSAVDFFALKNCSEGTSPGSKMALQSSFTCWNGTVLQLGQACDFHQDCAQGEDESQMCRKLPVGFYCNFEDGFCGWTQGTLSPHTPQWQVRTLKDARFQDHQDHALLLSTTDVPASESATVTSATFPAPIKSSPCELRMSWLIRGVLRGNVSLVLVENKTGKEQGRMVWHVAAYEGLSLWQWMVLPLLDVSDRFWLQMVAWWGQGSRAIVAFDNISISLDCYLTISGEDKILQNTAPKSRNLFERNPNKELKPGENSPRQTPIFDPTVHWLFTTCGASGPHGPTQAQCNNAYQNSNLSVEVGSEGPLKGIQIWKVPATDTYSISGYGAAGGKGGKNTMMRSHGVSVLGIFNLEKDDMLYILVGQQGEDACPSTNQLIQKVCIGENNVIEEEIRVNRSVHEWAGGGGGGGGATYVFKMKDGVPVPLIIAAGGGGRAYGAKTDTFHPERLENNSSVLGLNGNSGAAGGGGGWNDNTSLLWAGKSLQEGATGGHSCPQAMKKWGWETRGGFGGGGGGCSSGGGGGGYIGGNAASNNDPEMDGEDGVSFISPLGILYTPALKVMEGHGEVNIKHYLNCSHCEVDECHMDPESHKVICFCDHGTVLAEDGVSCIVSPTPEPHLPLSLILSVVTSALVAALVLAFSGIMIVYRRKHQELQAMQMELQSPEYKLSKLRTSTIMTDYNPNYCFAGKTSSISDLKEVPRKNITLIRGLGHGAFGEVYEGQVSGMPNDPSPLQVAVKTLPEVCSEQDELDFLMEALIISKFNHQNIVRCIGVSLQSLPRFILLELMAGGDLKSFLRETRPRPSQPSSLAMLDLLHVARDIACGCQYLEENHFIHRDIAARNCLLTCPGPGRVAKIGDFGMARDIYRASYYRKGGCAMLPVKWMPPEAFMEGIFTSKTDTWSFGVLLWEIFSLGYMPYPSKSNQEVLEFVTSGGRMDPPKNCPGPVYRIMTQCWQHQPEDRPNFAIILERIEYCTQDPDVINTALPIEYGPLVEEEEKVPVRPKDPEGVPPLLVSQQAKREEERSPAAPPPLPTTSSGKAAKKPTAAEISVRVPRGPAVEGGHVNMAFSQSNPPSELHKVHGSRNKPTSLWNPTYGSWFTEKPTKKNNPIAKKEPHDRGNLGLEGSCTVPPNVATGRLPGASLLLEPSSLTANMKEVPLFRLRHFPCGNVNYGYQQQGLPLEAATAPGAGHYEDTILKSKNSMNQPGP

[6] = target: T1, ALK; test: Inhibition of ALK phosphorylation (sandwich ELISA, pY1604), cell line not given; format: cell-based; parameters: fused on or other part: Q9HC35 (Echinoderm microtubule-associated protein-like 4); details: 1 hour, serum-free
Description: as §1
Target sequence in this assay (Q9UM73 1058-1620 limits assumed): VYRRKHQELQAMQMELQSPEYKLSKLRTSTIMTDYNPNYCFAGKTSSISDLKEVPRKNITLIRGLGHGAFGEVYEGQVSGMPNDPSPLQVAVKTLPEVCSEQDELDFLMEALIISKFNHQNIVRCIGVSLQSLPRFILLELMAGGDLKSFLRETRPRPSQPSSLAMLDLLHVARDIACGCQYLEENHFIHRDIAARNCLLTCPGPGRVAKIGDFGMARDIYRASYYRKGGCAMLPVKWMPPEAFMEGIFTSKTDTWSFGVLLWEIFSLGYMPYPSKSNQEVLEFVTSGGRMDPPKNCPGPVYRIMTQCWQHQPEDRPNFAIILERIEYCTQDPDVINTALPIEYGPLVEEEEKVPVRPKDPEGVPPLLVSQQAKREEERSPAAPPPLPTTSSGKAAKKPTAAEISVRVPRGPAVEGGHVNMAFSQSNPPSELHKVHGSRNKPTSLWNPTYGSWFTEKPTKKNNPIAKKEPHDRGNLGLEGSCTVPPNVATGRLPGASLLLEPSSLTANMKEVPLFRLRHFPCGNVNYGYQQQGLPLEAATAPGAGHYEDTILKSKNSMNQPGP

[7] = target: T1, ALK; test: Inhibition of ALK phosphorylation (sandwich ELISA, pY1604) in Karpas299 cells; format: cell-based; parameters: NPM1 portion (fusion partner, nucleophosmin, P06748); host or cells: Karpas299; SU-DHL-1; the other entry of the earlier key: NPM1 (P06748, Nucleophosmin); details: 1 hour, serum-free
Description: as §1
Target sequence in this assay (Q9UM73 with tags, fused parts or gaps): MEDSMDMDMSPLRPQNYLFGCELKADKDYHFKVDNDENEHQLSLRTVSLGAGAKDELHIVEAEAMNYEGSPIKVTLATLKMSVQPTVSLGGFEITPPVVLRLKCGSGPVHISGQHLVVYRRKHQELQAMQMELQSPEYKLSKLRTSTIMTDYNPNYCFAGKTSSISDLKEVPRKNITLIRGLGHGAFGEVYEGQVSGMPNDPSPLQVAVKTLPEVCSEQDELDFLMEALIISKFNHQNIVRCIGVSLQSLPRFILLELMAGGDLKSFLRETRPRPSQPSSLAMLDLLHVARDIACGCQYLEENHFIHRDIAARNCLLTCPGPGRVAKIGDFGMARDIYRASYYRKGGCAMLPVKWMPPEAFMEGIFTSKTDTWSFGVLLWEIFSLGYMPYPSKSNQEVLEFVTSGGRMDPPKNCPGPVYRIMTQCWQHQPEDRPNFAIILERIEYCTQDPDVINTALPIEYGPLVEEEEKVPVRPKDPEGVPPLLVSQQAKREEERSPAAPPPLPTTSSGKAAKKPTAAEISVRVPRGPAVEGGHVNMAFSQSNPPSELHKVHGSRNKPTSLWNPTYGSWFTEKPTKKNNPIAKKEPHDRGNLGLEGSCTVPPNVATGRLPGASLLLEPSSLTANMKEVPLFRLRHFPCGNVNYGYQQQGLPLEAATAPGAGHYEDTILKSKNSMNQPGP

[8] = target: T1, ALK; test: Inhibition of ALK phosphorylation (sandwich ELISA, pY1604) in SU-DHL-1 cells; format: cell-based; parameters: NPM1 portion (fusion partner, nucleophosmin, P06748); host or cells: Karpas299; SU-DHL-1; the other entry of the earlier key: NPM1 (P06748, Nucleophosmin); details: 1 hour, serum-free
Description: as §1

[9] = target: T2, ALK wild type (Homo sapiens, UniProt Q9UM73); test: Off-chip mobility shift assay (Carna Biosciences), ALK wild type; format: biochemical
T2 construct: purchased Carna Biosciences (Chuo-ku, Kobe, Japan)
Description: (§3) The activities of ALK wild type, its mutant F1174L, R1275Q, L1196M and EML4-ALK, NPM1-ALK were also determined using off-chip mobility shift assay at Carna Biosciences (Chuo-ku, Kobe, Japan). In brief, 5 μL of ×4 compound solution, 5 μL of ×4 substrate/ATP/metal solution and 10 μL of ×2 kinase solution were prepared with assay buffer (20 mM HEPES, 0.01% Triton X-100, 2 mM DTT, pH 7.5) and mixed and incubated in a well of polypropylene 384 well microplate for 1 or 5 hours (depending on the enzyme). The ATP concentration used in the reaction was 50 μM for ALK wild type, F1174L mutant, EML4-ALK and NPM1-ALK, and 100 μM for R1275Q and 72 μM for L1196M. An aliquot of 60 μL of termination buffer (QuickScout Screening Assist MSA, Carna Biosciences) was added to each well to terminate the reactions. The reaction mixture was applied to LabChip3000 system (Caliper Life Science), and the product and substrate peptide peaks were separated and quantitated. The kinase reaction was evaluated by the product ratio calculated from peak heights of product (P) and substrate (S) peptides (P/(P+S)). IC50 value was calculated from concentration vs. % Inhibition curves by fitting to a four parameter logistic curve.

[10] = target: T3, ALK mutant F1174L (Homo sapiens, UniProt Q9UM73, F1174L); test: Off-chip mobility shift assay (Carna Biosciences), ALK F1174L; format: biochemical
T3 construct: purchased Carna Biosciences (Chuo-ku, Kobe, Japan)
Description: as §3

[11] = target: T4, ALK mutant R1275Q (Homo sapiens, UniProt Q9UM73, R1275Q); test: Off-chip mobility shift assay (Carna Biosciences), ALK R1275Q; format: biochemical
T4 construct: purchased Carna Biosciences (Chuo-ku, Kobe, Japan)
Description: as §3

[12] = target: T5, ALK mutant L1196M (Homo sapiens, UniProt Q9UM73, L1196M); test: Off-chip mobility shift assay (Carna Biosciences), ALK L1196M; format: biochemical
T5 construct: purchased Carna Biosciences (Chuo-ku, Kobe, Japan)
Description: as §3

[13] = target: T6, EML4-ALK (Homo sapiens, UniProt Q9UM73); test: Off-chip mobility shift assay (Carna Biosciences), EML4-ALK; format: biochemical
T6 construct: purchased Carna Biosciences (Chuo-ku, Kobe, Japan); the other entry of the earlier key: EML4 (Q9HC35, Echinoderm microtubule-associated protein-like 4)
Description: as §3

[14] = target: T7, NPM1-ALK (Homo sapiens, UniProt Q9UM73); test: Off-chip mobility shift assay (Carna Biosciences), NPM1-ALK; format: biochemical
T7 construct: purchased Carna Biosciences (Chuo-ku, Kobe, Japan); the other entry of the earlier key: NPM1 (P06748, Nucleophosmin)
Description: as §3

[15] = system: lung cancer cell line H2228; test: H2228 xenograft studies in athymic mice; format: in vivo, athymic mice (nude/nud mouse); details: for reduced the tumor size: 14 days oral dosing at 60 mg/kg (BID)
Description: Xenograft model was developed in athymic mice (nude/nud mouse) with lung cancer cell line H2228 purchased from the American Type Culture Collection Company (Manassas, Va., USA). In brief, H2228 cells (1×10^7) were implanted s.c. into the hind flank region of each mouse and allowed to grow to the designated size (c.a. 150-200 mm^3) before administration of the tested articles. The tested articles were given orally at various dose levels twice daily for 10-14 days. Tumor volume and body weight were measured during the experiments. Tumor regression values were determined using the standard approach.

[16] = target: cytochrome P450 3A4 (Homo sapiens, UniProt P08684); details: reported; causing clinical drug-drug interactions; cited from earlier work
[17] = footnote #: ALK wild type, read-out: IC50 ALK Kinase (# ALK wild type)
[18] = mobility shift, ATP 50 μM, read-out: IC50 ALK wild type
[19] = footnote #: F1174L, read-out: IC50 ALK Kinase (# mutant F1174L)
[20] = mobility shift, ATP 50 μM, read-out: IC50 ALK F1174L
[21] = footnote #: R1275Q, read-out: IC50 ALK Kinase (# mutant R1275Q)
[22] = mobility shift, ATP 100 μM, read-out: IC50 ALK R1275Q
[23] = footnote #: L1196M, read-out: IC50 ALK Kinase (# mutant L1196M)
[24] = mobility shift, ATP 72 μM, read-out: IC50 ALK L1196M
[25] = footnote #: EML4-ALK, read-out: IC50 ALK Kinase (# EML4-ALK)
[26] = mobility shift, ATP 50 μM, read-out: IC50 EML4-ALK
[27] = footnote #: NPM1-ALK, read-out: IC50 ALK Kinase (# NPM1-ALK)
[28] = mobility shift, ATP 50 μM, read-out: IC50 NPM1-ALK

T2 sequence (Q9UM73 19-1620): as the sequence (Q9UM73 19-1620) above
T5 sequence (Q9UM73 19-1620 L1196M): as the sequence (Q9UM73 19-1620) above, with L1178M counted along it
T6 sequence (Q9UM73 with tags, fused parts or gaps): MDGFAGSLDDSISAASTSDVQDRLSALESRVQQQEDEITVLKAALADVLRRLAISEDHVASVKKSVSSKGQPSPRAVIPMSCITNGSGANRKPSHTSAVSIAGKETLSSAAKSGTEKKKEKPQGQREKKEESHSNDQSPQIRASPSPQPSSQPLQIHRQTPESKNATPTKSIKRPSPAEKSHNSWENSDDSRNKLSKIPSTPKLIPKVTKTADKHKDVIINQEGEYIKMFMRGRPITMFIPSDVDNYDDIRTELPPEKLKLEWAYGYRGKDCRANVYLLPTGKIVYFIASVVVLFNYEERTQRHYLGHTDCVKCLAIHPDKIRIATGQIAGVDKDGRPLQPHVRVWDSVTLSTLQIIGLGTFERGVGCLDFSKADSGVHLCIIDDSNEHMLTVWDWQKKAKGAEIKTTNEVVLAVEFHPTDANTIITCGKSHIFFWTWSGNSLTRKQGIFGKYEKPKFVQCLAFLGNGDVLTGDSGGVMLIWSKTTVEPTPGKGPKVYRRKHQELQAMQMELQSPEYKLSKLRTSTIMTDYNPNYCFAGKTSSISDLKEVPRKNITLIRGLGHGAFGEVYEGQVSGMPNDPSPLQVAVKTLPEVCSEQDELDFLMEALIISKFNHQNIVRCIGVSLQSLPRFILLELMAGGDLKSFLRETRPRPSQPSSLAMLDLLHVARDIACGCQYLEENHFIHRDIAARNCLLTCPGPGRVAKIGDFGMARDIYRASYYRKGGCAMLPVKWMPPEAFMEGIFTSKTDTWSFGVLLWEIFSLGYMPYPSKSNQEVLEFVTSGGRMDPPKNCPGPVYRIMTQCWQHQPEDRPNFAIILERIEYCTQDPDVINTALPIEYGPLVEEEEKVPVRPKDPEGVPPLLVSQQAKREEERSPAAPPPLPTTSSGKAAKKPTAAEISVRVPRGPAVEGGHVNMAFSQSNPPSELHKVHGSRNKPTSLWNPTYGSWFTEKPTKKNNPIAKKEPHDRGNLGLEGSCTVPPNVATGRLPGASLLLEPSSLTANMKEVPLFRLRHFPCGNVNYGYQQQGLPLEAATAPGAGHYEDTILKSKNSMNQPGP
T4 sequence (Q9UM73 19-1620 R1275Q): as the sequence (Q9UM73 19-1620) above, with R1257Q counted along it
T3 sequence (Q9UM73 19-1620 F1174L): as the sequence (Q9UM73 19-1620) above, with F1156L counted along it
Chain of cytochrome P450 3A4 (P08684 whole entry): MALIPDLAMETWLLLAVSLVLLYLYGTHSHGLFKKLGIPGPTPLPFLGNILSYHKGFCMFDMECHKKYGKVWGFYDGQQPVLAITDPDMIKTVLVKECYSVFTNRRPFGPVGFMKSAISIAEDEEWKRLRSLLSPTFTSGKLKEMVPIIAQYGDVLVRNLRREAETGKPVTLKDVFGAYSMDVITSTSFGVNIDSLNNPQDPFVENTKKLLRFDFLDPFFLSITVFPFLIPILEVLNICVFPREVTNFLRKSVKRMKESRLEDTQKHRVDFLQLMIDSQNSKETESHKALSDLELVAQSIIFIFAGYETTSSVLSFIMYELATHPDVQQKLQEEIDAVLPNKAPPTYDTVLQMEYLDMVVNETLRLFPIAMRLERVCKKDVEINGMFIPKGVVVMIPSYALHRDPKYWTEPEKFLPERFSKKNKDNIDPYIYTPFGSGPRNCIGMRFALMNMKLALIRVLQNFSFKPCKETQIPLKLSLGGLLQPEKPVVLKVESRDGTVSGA

IC50 [1] | IC50 [2] | IC50 [3] | half-life [4] | bioavailability [4] | IC50 [5] | IC50 [6] | IC50 [7] | IC50 [8] | IC50 [9, 17] | IC50 [9, 18] | IC50 [10, 19] | IC50 [10, 20] | IC50 [11, 21] | IC50 [11, 22] | IC50 [12, 23] | IC50 [12, 24] | IC50 [13, 25] | IC50 [13, 26] | IC50 [14, 27] | SMILES | other results
100 to 500 nM | < 100 nM | < 100 nM | > 3 h | > 20% | 100 to 500 nM | < 500 nM | < 100 nM |  |  |  |  |  |  |  |  |  |  |  |  | CC(Oc1cc(-c2ccc(P(C)(C)=O)cc2)cnc1N)c1c(Cl)ccc(F)c1Cl (stereo not shown) [Example 1, 3-[1-(2,6-dichloro-3-fluoro-phenyl)ethoxy]-5-(4-dimethylphosphorylphenyl)pyridin-2-amine] | 
< 100 nM | < 100 nM | < 100 nM | > 3 h | > 20% | < 100 nM |  | < 100 nM | < 50 nM |  |  |  |  |  |  |  |  |  |  |  | COc1cc(P(C)(C)=O)ccc1-c1cnc(N)c(OC(C)c2c(Cl)ccc(F)c2Cl)c1 (stereo not shown) [Example 8, 3-[1-(2,6-dichloro-3-fluoro-phenyl)ethoxy]-5-(4-dimethylphosphoryl-2-methoxy-phenyl)pyridin-2-amine] | 
< 100 nM | < 100 nM | < 100 nM |  |  | 100 to 500 nM | < 50 nM | < 100 nM | < 50 nM |  |  |  |  |  |  |  |  |  |  |  | C[C@@H](Oc1cc(-c2ccc(P(C)(C)=O)cc2)cnc1N)c1c(Cl)ccc(F)c1Cl [Example 23, 3-[(1R)-1-(2,6-dichloro-3-fluoro-phenyl)ethoxy]-5-(4-dimethylphosphorylphenyl)pyridin-2-amine] | 
< 100 nM | < 100 nM | < 100 nM |  |  |  | < 50 nM | < 100 nM | < 50 nM | < 100 nM | < 50 nM | < 100 nM | < 50 nM | < 100 nM | < 50 nM | < 100 nM | < 50 nM | < 100 nM | < 50 nM | < 100 nM | COc1cc(P(C)(C)=O)ccc1-c1cnc(N)c(O[C@H](C)c2c(Cl)ccc(F)c2Cl)c1 [Example 24, 3-[(1R)-1-(2,6-dichloro-3-fluoro-phenyl)ethoxy]-5-(4-dimethylphosphoryl-2-methoxy-phenyl)pyridin-2-amine] | IC50 [14, 28]: < 50 nM; inhibition of tumor growth compared to the vehicle control ([15]; 20 mg/kg oral BID): 79%; inhibition of tumor growth compared to the vehicle control ([15]; 60 mg/kg oral BID): 93%; reduced the tumor size [15]: approximately 80%
< 100 nM | < 100 nM | < 100 nM |  |  |  | < 50 nM | < 100 nM | < 50 nM | < 100 nM | < 50 nM | < 100 nM | < 50 nM | < 100 nM | < 50 nM | < 100 nM | < 50 nM | < 100 nM | < 50 nM | < 100 nM | C[C@@H](Oc1cc(-c2ccc(P(C)(C)=O)cc2F)cnc1N)c1c(Cl)ccc(F)c1Cl [Example 25, 3-[(1R)-1-(2,6-dichloro-3-fluoro-phenyl)ethoxy]-5-(4-dimethylphosphoryl-2-fluoro-phenyl)pyridin-2-amine] | IC50 [14, 28]: < 50 nM; inhibition of tumor growth compared to the vehicle control ([15]; 6 mg/kg oral BID): 46%; inhibition of tumor growth compared to the vehicle control ([15]; 20 mg/kg oral BID): 73%; inhibition of tumor growth compared to the vehicle control ([15]; 60 mg/kg oral BID): 93%; reduced the tumor size [15]: approximately 80%
 |  |  |  |  |  |  |  |  |  |  |  |  |  |  |  |  |  |  |  | C[C@@H](Oc1cc(-c2cnn(C3CCNCC3)c2)cnc1N)c1c(Cl)ccc(F)c1Cl [crizotinib] | cytochrome P450 3A4 inhibition [16]: time-dependent cytochrome P450 3A4 inhibitor
